Columns and labels:
Assay type in all cases: cell-based
[1] = tested on: Aspergillus niger ATCC 6275; test: Agar incorporation test CG128e (Example 11); details: 28° C. for 3 days
Method: (§1) [table] 0.3 ml of each dilution step is mixed with 15 ml of nutrient medium while the latter is still liquid. After the nutrient medium has solidified, 10 μl of each of the following organism dilutions of the test strains in 0.85% NaCl solution are spotted onto the agar medium: [table] The plates are incubated at 37° C. for 24 hours (A. niger at 28° C. for 3 days) and then the highest dilution (lowest concentration) of the test substance at which growth is just no longer discernible (corresponds to the MIC) is determined.

[2] = tested on: C. minutissimum ATCC 23348; test: Agar incorporation test CG128e (Example 11); details: 24 hours at 37° C.
Method: as §1

[3] = tested on: Candida albicans ATCC 10231; test: Agar incorporation test CG128e (Example 11); details: 24 hours at 37° C.
Method: as §1

[4] = tested on: Corynebacterium xerosis* ATCC 373; test: Agar incorporation test CG128e (Example 11); details: 24 hours at 37° C.; organism marked *
Method: as §1

[5] = tested on: Escherichia coli ATCC 10536; test: Agar incorporation test CG128e (Example 11); details: 24 hours at 37° C.
Method: as §1

[6] = tested on: Escherichia coli NCTC 8196; test: Agar incorporation test CG128e (Example 11); details: 24 hours at 37° C.
Method: as §1

[7] = tested on: Klebsiella pneumoniae ATCC 4352; test: Agar incorporation test CG128e (Example 11); details: 24 hours at 37° C.
Method: as §1

[8] = tested on: Propionibacterium acnes (*) ATCC 6919; test: Agar incorporation test CG128e (Example 11); details: 24 hours at 37° C.; organism marked *
Method: as §1

[9] = tested on: Proteus vulgaris ATCC 6896; test: Agar incorporation test CG128e (Example 11); details: 24 hours at 37° C.
Method: as §1

[10] = tested on: Pseudomonas aeruginosa ATCC 15442; test: Agar incorporation test CG128e (Example 11); details: 24 hours at 37° C.
Method: as §1

[11] = tested on: Salmonella choleraesuis ATCC 9184; test: Agar incorporation test CG128e (Example 11); details: 24 hours at 37° C.
Method: as §1

[12] = tested on: Staphylococcus aureus ATCC 6538; test: Agar incorporation test CG128e (Example 11); details: 24 hours at 37° C.
Method: as §1

[13] = tested on: Staphylococcus aureus ATCC 9144; test: Agar incorporation test CG128e (Example 11); details: 24 hours at 37° C.
Method: as §1

[14] = tested on: Staphylococcus epidermidis ATCC 12228; test: Agar incorporation test CG128e (Example 11); details: 24 hours at 37° C.
Method: as §1

[15] = tested on: Actynomyces viscosus ATCC 43146; test: "Microbicidal Activity" suspension test CG 161/EN1040 (Example 12); details: A. viscosus
Method: (§2) Bacteria are incubated overnight in CASO broth and adjusted to an organism count of 1-5×10^5 CFU/ml using 0.85% sodium chloride solution. The test substances are pre-pipetted into microtitre plates in amounts of 8 μl per well. The adjusted test organism suspensions are added in amounts of 192 μl per well to the test substances and mixed. After defined contact times, the test batches are mixed, an aliquot is withdrawn and diluted in several steps in a dilution series of 1:10 in a suitable inactivation medium. The test plates are incubated for 24 hours at 37° C. After incubation, the growth is determined on the basis of the turbidity of the test batches (optical density) at 620 nm in a microplate reader. […] One microtitre plate is used for each test organism. All the substances are tested in duplicate.

[16] = tested on: Escherichia coli ATCC 10536; test: as above; details: E. coli
Method: as §2

[17] = tested on: Staphylococcus aureus ATCC 6538; test: as above; details: S. aureus
Method: as §2

[18] = contact time 5 min, test substance 0.12%
[19] = contact time 5 min, test substance 120 ppm
[20] = contact time 30 min, test substance 0.12%
[21] = contact time 30 min, test substance 120 ppm

CCCCCCCCCCCCNc1cc(C)nc(C(C)C)n1 [Compound of formula 93, 4-dodecylamino-2-isopropyl-6-methylpyrimidine]
MIC (agar incorporation) Aspergillus niger ATCC 6275 [1]: >120 | MIC (agar incorporation) C. minutissimum ATCC 23348 [2]: 1.88 | MIC (agar incorporation) Candida albicans ATCC 10231 [3]: >120 | MIC (agar incorporation) Corynebacterium xerosis* ATCC 373 [4]: 1.88* | MIC (agar incorporation) Escherichia coli ATCC 10536 [5]: 120 | MIC (agar incorporation) Escherichia coli NCTC 8196 [6]: 120 | MIC (agar incorporation) Klebsiella pneumoniae ATCC 4352 [7]: 60 | MIC (agar incorporation) Propionibacterium acnes (*) ATCC 6919 [8]: 3.75 (*) | MIC (agar incorporation) Proteus vulgaris ATCC 6896 [9]: >120 | MIC (agar incorporation) Pseudomonas aeruginosa ATCC 15442 [10]: >120 | MIC (agar incorporation) Salmonella choleraesuis ATCC 9184 [11]: 120 | MIC (agar incorporation) Staphylococcus aureus ATCC 6538 [12]: 3.75 | MIC (agar incorporation) Staphylococcus aureus ATCC 9144 [13]: 3.75 | MIC (agar incorporation) Staphylococcus epidermidis ATCC 12228 [14]: 3.75 | log reduction [15, 18]: >5 log | log reduction [15, 19]: 2 log | log reduction [15, 20]: >5 log | log reduction [15, 21]: 4 log | log reduction [16, 18]: >5 log | log reduction [16, 19]: >5 log | log reduction [16, 20]: >5 log | log reduction [16, 21]: >5 log | log reduction [17, 18]: >5 log | log reduction [17, 19]: 1.4 log | log reduction [17, 20]: >5 log | log reduction [17, 21]: 3.8 log

Source: patent publication US7731985B2, “4-aminopyrimidines and their use for the antimicrobial treatment of surfaces” (Ciba Specialty Chemicals Corporation, priority 2002, dated 2010)
